Experimental data from patent US11053204B2, “Pyrimidinyloxy benzene derivatives as herbicides” (FMC Corporation, priority 2015, dated 2021).

Key:
Assay type in all cases: in vivo
kochia (Kochia scoparia) = experiment: Test C preemergence, plant response rating
[1] = tested on: windgrass (Apera spica-venti); experiment: Test C preemergence, plant response rating
[2] = tested on: pigweed, palmer (palmer pigweed, Amaranthus palmeri); experiment: Test C preemergence, plant response rating
[3] = tested on: galium (catchweed bedstraw, Galium aparine); experiment: Test C preemergence, plant response rating
[4] = tested on: wild poinsettia (Euphorbia heterophylla); experiment: Test C preemergence, plant response rating
[5] = tested on: morningglory (Ipomoea coccinea); experiment: Test C postemergence, plant response rating; conditions: for Morningglory plant response rating: scale 0 to 100 (0 no effect, 100 complete control)
Outline: (§1)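 Pre-emergence: seeds sown in loam soil–sand blend or silt loam and sprayed with test chemicals in a non-phytotoxic solvent mixture with surfactant. Post-emergence: plants 2 to 18 cm (1- to 4-leaf stage) in peat-based potting medium, same formulation. Greenhouse 13 to 15 d; visual rating 0 (no effect) to 100 (complete control) versus controls.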

[6] = tested on: velvetleaf (Abutilon theophrasti); experiment: Test C postemergence, plant response rating
Outline: as §1

[7] = tested on: nutsedge, yellow (yellow nutsedge, Cyperus esculentus); experiment: Test C postemergence, plant response rating; conditions: for Nutsedge, Yellow plant response rating: scale 0 to 100 (0 no effect, 100 complete control)
Outline: as §1

[8] = tested on: lambsquarters (Chenopodium album); experiment: Test C postemergence, plant response rating; conditions: for Lambsquarters plant response rating: scale 0 to 100 (0 no effect, 100 complete control)
Outline: as §1

[9] = tested on: ragweed (common ragweed, Ambrosia elatior); experiment: Test C postemergence, plant response rating; conditions: for Ragweed plant response rating: scale 0 to 100 (0 no effect, 100 complete control)
Outline: as §1

[10] = tested on: barnyardgrass (Echinochloa crus-galli); experiment: Test C postemergence, plant response rating; conditions: for Plant response rating, Barnyardgrass: scale 0 to 100; for Barnyardgrass plant response rating: scale 0 to 100 (0 no effect, 100 complete control)
Outline: as §1

[11] = tested on: blackgrass (Alopecurus myosuroides); experiment: Test C postemergence, plant response rating; conditions: for Plant response rating, Blackgrass: scale 0 to 100; for Blackgrass plant response rating: scale 0 to 100 (0 no effect, 100 complete control)
Outline: as §1

[12] = tested on: chickweed (common chickweed, Stellaria media); experiment: Test C postemergence, plant response rating; conditions: for Chickweed plant response rating: scale 0 to 100 (0 no effect, 100 complete control)
Outline: as §1

[13] = tested on: oat, wild (wild oat Avena fatua); experiment: Test C postemergence, plant response rating; conditions: for Oat, Wild plant response rating: scale 0 to 100 (0 no effect, 100 complete control)
Outline: as §1

[14] = tested on: ryegrass, Italian (Italian ryegrass, Lolium multiflorum); experiment: Test C postemergence, plant response rating; conditions: for Ryegrass, Italian plant response rating: scale 0 to 100 (0 no effect, 100 complete control)
Outline: as §1

[15] = tested on: wheat (winter wheat, Triticum aestivum); experiment: Test C postemergence, plant response rating
Outline: as §1

[16] = tested on: surinam grass (Brachiaria decumbens); experiment: Test C preemergence, plant response rating
[17] = tested on: oat, wild (wild oat Avena fatua); experiment: Test C preemergence, plant response rating
[18] = tested on: johnsongrass (Sorghum halepense); experiment: Test C preemergence, plant response rating
[19] = 125 g ai/ha, scale 0 to 100 (0 no effect, 100 complete control)

## O=C(CCCC(F)(F)F)c1c(Cl)cccc1Oc1ncc(Cl)cn1 [Compound 143]
Kochia (Kochia scoparia); 31 g ai/ha, scale 0 to 100
  Plant response rating, Kochia: 80
Kochia (Kochia scoparia); 62 g ai/ha, scale 0 to 100
  Plant response rating, Kochia: 90
Kochia (Kochia scoparia); 125 g ai/ha, scale of 0 to 100
  Plant response rating, Kochia: 90
[1]; 31 g ai/ha, scale 0 to 100
  Plant response rating, Windgrass: 85
[1]; 62 g ai/ha, scale 0 to 100
  Plant response rating, Windgrass: 100
[1]; 125 g ai/ha, scale of 0 to 100
  Plant response rating, Windgrass: 100
[2]; 31 g ai/ha, scale 0 to 100
  Plant response rating, Pigweed, Palmer: 100
[2]; 62 g ai/ha, scale 0 to 100
  Plant response rating, Pigweed, Palmer: 100
[2]; 125 g ai/ha, scale of 0 to 100
  Plant response rating, Pigweed, Palmer: 100
[3]; 31 g ai/ha, scale 0 to 100
  Plant response rating, Galium: 30
[3]; 62 g ai/ha, scale 0 to 100
  Plant response rating, Galium: 80
[3]; 125 g ai/ha, scale of 0 to 100
  Plant response rating, Galium: 80
[4]; 31 g ai/ha, scale 0 to 100
  Plant response rating, Poinsettia, Wild: 5
[4]; 62 g ai/ha, scale 0 to 100
  Plant response rating, Poinsettia, Wild: 20
[4]; 125 g ai/ha, scale of 0 to 100
  Plant response rating, Poinsettia, Wild: 25
[5]; 16 g ai/ha, scale of 0 to 100
  Plant response rating, Morningglory: 15
[5]; 31 g ai/ha, scale 0 to 100
  Plant response rating, Morningglory: 70
[5]; 62 g ai/ha
  Morningglory plant response rating: 50
[5]; 125 g ai/ha
  Morningglory plant response rating: 65
[6]; 16 g ai/ha, scale of 0 to 100
  Plant response rating, Velvetleaf: 35
[6]; 31 g ai/ha, scale 0 to 100
  Plant response rating, Velvetleaf: 55
[6]; [19]
  Velvetleaf plant response rating: 70
[7]; 16 g ai/ha, scale of 0 to 100
  Plant response rating, Nutsedge, Yellow: 0
[7]; 31 g ai/ha, scale 0 to 100
  Plant response rating, Nutsedge, Yellow: 5
[7]; 62 g ai/ha
  Nutsedge, Yellow plant response rating: 5
[7]; 125 g ai/ha
  Nutsedge, Yellow plant response rating: 25
[8]; 16 g ai/ha, scale of 0 to 100
  Plant response rating, Lambsquarters: 75
[8]; 31 g ai/ha, scale 0 to 100
  Plant response rating, Lambsquarters: 90
[8]; 62 g ai/ha
  Lambsquarters plant response rating: 90
[8]; 125 g ai/ha
  Lambsquarters plant response rating: 95
[9]; 16 g ai/ha, scale of 0 to 100
  Plant response rating, Ragweed: 20
[9]; 31 g ai/ha, scale 0 to 100
  Plant response rating, Ragweed: 50
[9]; 62 g ai/ha
  Ragweed plant response rating: 55
[9]; 125 g ai/ha
  Ragweed plant response rating: 55
[10]; 16 g ai/ha
  Plant response rating, Barnyardgrass: 5
[10]; 31 g ai/ha
  Plant response rating, Barnyardgrass: 10
[10]; 62 g ai/ha
  Barnyardgrass plant response rating: 10
[10]; 125 g ai/ha
  Barnyardgrass plant response rating: 20
[11]; 16 g ai/ha
  Plant response rating, Blackgrass: 10
[11]; 31 g ai/ha
  Plant response rating, Blackgrass: 15
[11]; 62 g ai/ha
  Blackgrass plant response rating: 15
[11]; 125 g ai/ha
  Blackgrass plant response rating: 40
[12]; 16 g ai/ha, scale of 0 to 100
  Plant response rating, Chickweed: 80
[12]; 31 g ai/ha, scale 0 to 100
  Plant response rating, Chickweed: 80
[12]; 62 g ai/ha
  Chickweed plant response rating: 85
[12]; 125 g ai/ha
  Chickweed plant response rating: 100
[13]; 16 g ai/ha, scale of 0 to 100
  Plant response rating, Oat, Wild: 10
[13]; 31 g ai/ha, scale 0 to 100
  Plant response rating, Oat, Wild: 10
[13]; 62 g ai/ha
  Oat, Wild plant response rating: 10
[13]; 125 g ai/ha
  Oat, Wild plant response rating: 20
[14]; 16 g ai/ha, scale of 0 to 100
  Plant response rating, Ryegrass, Italian: 5
[14]; 31 g ai/ha, scale 0 to 100
  Plant response rating, Ryegrass, Italian: 10
[14]; 62 g ai/ha
  Ryegrass, Italian plant response rating: 10
[14]; 125 g ai/ha
  Ryegrass, Italian plant response rating: 20
[15]; 16 g ai/ha, scale of 0 to 100
  Plant response rating, Wheat: 5
[15]; 31 g ai/ha, scale 0 to 100
  Plant response rating, Wheat: 10
[15]; [19]
  Wheat plant response rating: 30
[16]; 31 g ai/ha, scale 0 to 100
  Plant response rating, Surinam Grass: 10
[16]; 62 g ai/ha, scale 0 to 100
  Plant response rating, Surinam Grass: 35
[16]; 125 g ai/ha, scale of 0 to 100
  Plant response rating, Surinam Grass: 50
[17]; 31 g ai/ha, scale 0 to 100
  Plant response rating, Oat, Wild: 0
[17]; 62 g ai/ha, scale 0 to 100
  Plant response rating, Oat, Wild: 5
[17]; 125 g ai/ha, scale of 0 to 100
  Plant response rating, Oat, Wild: 5
[18]; 31 g ai/ha, scale 0 to 100
  Plant response rating, Johnsongrass: 25
[18]; 62 g ai/ha, scale 0 to 100
  Plant response rating, Johnsongrass: 50
[18]; 125 g ai/ha, scale of 0 to 100
  Plant response rating, Johnsongrass: 80
